Results reported in patent US6399318B1, “Immunoassay for phthalic acid esters” (Otsuka Pharmaceutical Co., Ltd., priority 2000, dated 2002).
≈ marks a conversion by molar mass, not a printed value. Structures can show the parent of a compound that is named as a salt.

Assays:
Assay type in all cases: binding, rabbit
[1] = test system: Antiserum RY778 (anti-phthalic acid ester antibody); assay: ELISA for diethyl phthalate and cross-reactivity test; details: for Cross-reactivity: relative to diethyl phthalate (calculated as 100%) at B/B0=50, antiserum RY778; for IC50: competitive ELISA, antiserum RY778, biotinylated diethyl phthalate derivative as labeled antigen
Procedure: An ELISA system of the present invention for diethyl phthalate was designed in the following manner.
Diethyl phthalate was diluted as follows. A solution (857 μg/mL) of 12 mg of diethyl phthalate in 15.7% DMSO was 10-fold diluted with PBS buffer to give a standard solution (85.7 μg/ml). Five-fold dilution of the standard solution was repeated to give solutions of various concentrations (17.1 μg/ml, 3.4 μg/ml, 0.69 μg/ml, 0.137 μg/ml, 0.027 μg/ml and 0.005 μg/ml). These solutions were used as diluted standard antigen solutions.
Biotin-Arg-Lys-aminocapronyl-4-amino-diethyl phthalate synthesized in Example 1 (4) was diluted to 2 ng/ml with PBS buffer and used as a labeled antigen solution.
Antiserum RY778 (anti-phthalic acid ester antibody) synthesized in Example 4 was diluted 10,000-fold with PBS buffer (containing 0.1% BSA and 0.1% Tween 20) and used as an antibody solution.
Goat anti-rabbit IgG (Jackson Immuno Research) was diluted 200-fold with 0.1M phosphate buffer (pH8.0), and 100 μl of the diluted IgG was pipetted into each well of a 96-well microtiter plate (Maxi Sorp, Nunc). The plate was allowed to stand at 25° C. for 18 to 20 hours and then the supernatant was removed. Subsequently, 340 μl of Block Ace (Dainippon Pharmaceutical Co., Ltd.) was pipetted into each well and the plate was allowed to stand at 25° C. for 18 to 20 hours whereby blocking was completed.
After the plate was washed with a wash solution (0.15M NaCl containing 0.1% Tween 20) 5 times, 50 μl of a diluted standard antigen solution or sample, 50 μl of the labeled antigen solution and 100 μl of the antibody solution were added to each well. The culture was incubated at 4° C. for 18 to 20 hours. The plate was washed 3 times with 0.3 ml of the wash solution, and then 0.1 ml of a streptavidin-horseradish peroxidase conjugate (×2500) was added. After incubation at room temperature for 1.5 hours, the plate was washed with 0.3 ml of the wash solution 4 times and then a tetramethyl benzidine-containing colorant (0.1 ml, product of Sigma) was added. After 30 minutes of coloring, 2N sulfuric acid was added to stop the reaction. Absorbance at 450 nm was measured.
A standard curve for diethyl phthalate was obtained from the results of the diluted standard antigen solutions (FIG. 1). In FIG. 1, the ordinate denotes absorbance (at 450 nm) and the abscissa denotes standard antigen concentration (ng/ml).
The cross-reactivity of the antibody of the invention with diethyl phthalate and structurally similar compounds was tested using the ELISA system described in Example 5.
Cross-reactivity (%) is defined as the molar concentration of each test antigen, relative to the concentration of diethyl phthalate (calculated as 100%), at B/B0=50.

[2] = test system: antiserum RY850; assay: ELISA for benzyl n-butyl phthalate and cross-reactivity test; details: ELISA system for benzyl n-butyl phthalate
Procedure: An ELISA system of the invention for benzyl n-butyl phthalate was designed in a manner similar to that of Example 5, using benzyl n-butyl phthalate (product of Kanto Chemical Co., Inc.) as a standard antigen, using biotin-Arg-Lys-aminocapronyl-4-(or 5-)amino-benzyl n-butyl phthalate of Example 2 (2-6) as a labeled antigen and using antiserum RY850 (10,000-fold diluted) as an antiserum. The antiserum RY850 was prepared as in Example 4, but the aminocapronyl-4-(or 5-)amino-benzyl n-butyl phthalate of Example 2 (2-5) was used in place of aminocapronyl-4-amino-diethyl phthalate.
A standard curve for benzyl n-butyl phthalate was obtained (FIG. 2). In FIG. 2, the ordinate denotes absorbance (at 492 nm) and the abscissa denotes standard antigen concentration (ng/ml).
The cross-reactivity of the antibody of the invention with benzyl n-butyl phthalate and structurally similar compounds was determined using the ELISA system described in Example 8.

[3] = test system: antiserum RY849; assay: ELISA for di-n-butyl phthalate and cross-reactivity test; details: ELISA system for di-n-butyl phthalate
Procedure: An ELISA system of the invention for di-n-butyl phthalate was designed in a manner similar to that of Example 5, using di-n-butyl phthalate (product of Wako Pure Chemical Industries, Inc.) as a standard antigen, using biotin-Arg-Lys-aminocapronyl-4-amino-di-n-butyl phthalate of Example 2 (2-4) as a labeled antigen and using antiserum RY849 (10,000-fold diluted) as an antiserum. The antiserum RY849 was prepared as in Example 4, but the aminocapronyl-4-amino-di-n-butyl phthalate of Example 2 (2-3) was used in place of aminocapronyl-4-amino-diethyl phthalate of Example 4.
A standard curve for di-n-butyl phthalate was obtained (FIG. 3).
The cross-reactivity of the antibody of the invention with di-n-butyl phthalate and structurally similar substances was determined using the ELISA system described in Example 10.

Molecule	Cross-reactivity [1]	IC50 [1]	Cross-reactivity [3]	other results
O=C(O)c1ccccc1 [Benzoic acid]	<0.001%	–	–	Cross-reactivity ([1]; listed as benzoic acid): less than 0.001%
CCCCC(CC)COC(=O)c1ccccc1C(=O)OCC(CC)CCCC (stereo not shown) [Di(2-ethylhexyl)phtalate]	<0.001%	–	–	–
CCCCOC(=O)c1ccccc1C(=O)OCCCC [Dibutyl phthalate]	0.014%	3.893432 µg/mL (≈ 14 µM)	–	Cross-reactivity [2]: 38.9%; Cross-reactivity ([1]; listed as dibutyl phthalate): about 0.01%
CCOC(=O)c1ccccc1C(=O)OCC [Diethyl phthalate]	100%	0.000546 µg/mL (≈ 0.00246 µM)	4%	Cross-reactivity ([1]; listed as diethyl phthalate): high reactivity
COC(=O)c1ccccc1C(=O)OC [Dimethyl phthalate]	0.556%	0.098178 µg/mL (≈ 0.506 µM)	1.2%	Cross-reactivity ([1]; listed as dimethyl phthalate): about 0.56%
C/C(=C(/C)c1ccc(O)cc1)c1ccc(O)cc1 [Dimethyl stilbestrol]	<0.001%	–	–	Cross-reactivity ([1]; listed as dimethyl stilbestrol): does not show substantial cross-reactivity
CCOC(C)=O [Ethyl acetate]	0.012%	4.480033 µg/mL	–	–
CCOC(=O)c1ccccc1 [Ethyl benzoate]	0.012%	4.391316 µg/mL (≈ 29.2 µM)	–	–
CCOC=O [Ethyl formate]	0.018%	3.001226 µg/mL	–	–
O=C(O)c1ccccc1C(=O)O [Phthalic acid]	<0.001%	–	–	–
CCCCOC(=O)c1ccccc1C(=O)OCc1ccccc1 [benzyl n-butyl phthalate]	–	–	100%	–
CC/C(=C(/CC)c1ccc(O)cc1)c1ccc(O)cc1 [diethyl stilbestrol]	–	–	1.5%	–
nonylphenol	–	–	3.4%	Cross-reactivity [2]: 2.3%
